Assay results: patent publication US8252832B2, “Kinesin inhibitors as cancer therapeutics” (Novartis AG, priority 2007, dated 2012)

What was measured:
Assay in all cases: LDH release assay
Format in all cases: cell-based
HCT-116 = details: Homo sapiens
Text: (§1) Identification of tumor types that are the most sensitive to the KSP inhibitors of the present invention can be accomplished using an unbiased approach that uses several cell-based assays. The assays chosen were as follows: • CellTiter-Glo®. This is an assay designed to measure ATP concentration in a cell culture, and can be correlated to cell number. Briefly CellTiter-Glo® (Promega Corporation) is a homogeneous method using the single CellTiter-Glo® reagent to detect ATP wherein ATP in the assay drives the activity of a thermostable luciferase to create a luminescent signal which can then be measured and correlated with the number of viable cells. Briefly, for adherent cells, 1,000 to 5,000 cells/well were plated in 96-well plates (100 μl/well) and let to adhere for 24 hours before being treated with drug. For non-adherent cells, 1,000 to 10,000 cells/well were plated in 96-well plates (100 μl/well) and immediately treated with drug. Drug dilutions were prepared in DMSO at 1000 times the final concentration. These dilutions were then diluted 1/100 in growth media before being added to the cells (11 μl/well) to achieve the desired final concentration. After 48 h in a 37° C. tissue culture incubator, the plates were processed for the CellTiter-Glo®assay according to the manufacturer's instructions. Protocol for a 72 hour cell proliferation assay: The 72 hour assay was performed the same way as the 48 hour assay except for the following modifications: For adherent cells, 500 to 5,000 cells/well were plated in 96-well plates (90 μl/well cell growth media) and left to adhere for 24 hours before being treated with drug. For non-adherent cells, 1,000 to 10,000 cells/well were plated in 96-well plates (90 μl/well cell growth media) and immediately treated with drug. Data values presented represent the concentration of test compound required for a 50% reduction in growth. • LDH release. The Cytotoxicity Detection KitPLUS (LDH) assay (Roche Diagnostics, Manheim, Germany) measures the amount of LDH released in the media by dying cells; LDH catalyzes the conversion of lactate into pyruvate. The enzymatic reaction is coupled to a chemical reaction that uses a tetrazolium salt to form a formazan that is red and can be detected by its absorbance at 490 nm. This assay measures the amount of cell death after drug treatment. Cells were plated at 10,000 cells/well in 96-well plates (100 μl/well). Adherent cells were let to adhere for 24 hours before being treated with drug, whereas non-adherent cells were immediately treated with drug. Drug dilutions were prepared in DMSO at 1000 times the final concentration. These dilutions were then diluted 1/100 in growth media before being added to the cells (11 μl/well) to achieve the desired final concentration. […] The media only values were subtracted from all the data points before analysis. Data values presented correspond to the compound concentration wherein LDH output is at half maximal level. • Caspase-Glo® 3/7. The Caspase-Glo® 3/7 Assay (Promega Corporation) is a homogeneous luminescent assay that measures caspase-3/7 activities. The assay provides a proluminescent caspase-3/7 DEVD-aminoluciferin substrate and a thermostable luciferase in a reagent optimized for caspase-3/7 activity, luciferase activity and cell lysis. Adding the single Caspase-Glo® 3/7 Reagent results in cell lysis, followed by caspase cleavage of the substrate. This liberates free aminoluciferin, which is consumed by the luciferase, generating a luminescent signal. The signal is proportional to caspase-3/7 activity. Data values presented correspond to the compound concentration wherein caspase 3/7 activity is at half maximal level.

T47-D = details: Homo sapiens, T47D
Text: as §1

HT29 = details: Homo sapiens, HT-29
Text: as §1

CC(C)(C)[C@H](c1nc(-c2cc(F)ccc2F)cn1Cc1ccccc1)N(CC[C@H](N)CF)C(=O)CO [Compound IIa]
EC50 (HCT-116; HCT-116, 24 h): 0.06 nM
EC50 (HCT-116; HCT-116, 48 h): 0.1 nM
EC50 (HCT-116; HCT-116, 72 h): 0.1 nM
EC50 (T47-D; 48 h): 0.32 nM
EC50 (T47-D; 72 h): 0.33 nM
EC50 (HT29; HT29, 48 h): 0.35 nM
EC50 (HT29; HT29, 72 h): 0.27 nM
